Where two headings read alike, the source gives them in different places.
How the values were obtained:
Kir2.1 = target: T1, Kir2.1 (Homo sapiens, UniProt P63252); experiment: automated patch clamp (QPatch); assay type: cell-based
T1 construct: gene KCNJ2; stably expressed in CHO cells; IK1 current; homotetramer
T1 sequence (P63252 1-427): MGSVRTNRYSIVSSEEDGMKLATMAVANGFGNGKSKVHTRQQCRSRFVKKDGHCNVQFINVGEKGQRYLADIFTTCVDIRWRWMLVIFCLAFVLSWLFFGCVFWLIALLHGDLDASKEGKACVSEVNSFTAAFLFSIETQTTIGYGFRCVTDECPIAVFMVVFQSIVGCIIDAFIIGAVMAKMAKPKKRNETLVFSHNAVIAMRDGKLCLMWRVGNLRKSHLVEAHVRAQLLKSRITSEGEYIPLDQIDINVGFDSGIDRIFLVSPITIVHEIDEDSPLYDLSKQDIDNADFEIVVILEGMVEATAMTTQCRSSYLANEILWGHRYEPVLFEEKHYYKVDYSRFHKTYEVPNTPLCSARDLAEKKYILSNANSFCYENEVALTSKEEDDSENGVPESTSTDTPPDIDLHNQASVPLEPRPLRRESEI
Description: automated patch clamp (QPatch) on Kir2.1

[1] = target: T2, CaV1.2 (coexpressed with β2/α2δ1) (Homo sapiens, UniProt Q13936); experiment: automated patch clamp (SyncroPatch […]PE); assay type: cell-based; conditions: read-out: CaV1.2 peak
T2 construct: gene CACNA1C; stably expressed in CHO cells with beta2 and alpha2delta1; with Voltage-dependent L-type calcium channel subunit beta-2; Voltage-dependent calcium channel subunit alpha-2/delta-1

NaV1.5 = target: T3, NaV1.5 (Homo sapiens, UniProt Q14524); experiment: automated patch clamp (SyncroPatch […]PE); assay type: cell-based; conditions: read-out: NaV1.5 peak
T3 construct: gene SCN5A; stably expressed in CHO cells; no beta subunit mentioned

hERG = target: T4, hERG (Homo sapiens, UniProt Q12809); experiment: automated patch clamp (SyncroPatch […]PE); assay type: cell-based
T4 construct: gene KCNH2; stably expressed in CHO cells; IKr current; homotetramer

HCN4 = target: T5, HCN4 (Homo sapiens, UniProt Q9Y3Q4); experiment: automated patch clamp (SyncroPatch […]PE); assay type: cell-based
T5 construct: stably expressed in HEK 293 cells; If current; homotetramer
T5 sequence (Q9Y3Q4 1-1203): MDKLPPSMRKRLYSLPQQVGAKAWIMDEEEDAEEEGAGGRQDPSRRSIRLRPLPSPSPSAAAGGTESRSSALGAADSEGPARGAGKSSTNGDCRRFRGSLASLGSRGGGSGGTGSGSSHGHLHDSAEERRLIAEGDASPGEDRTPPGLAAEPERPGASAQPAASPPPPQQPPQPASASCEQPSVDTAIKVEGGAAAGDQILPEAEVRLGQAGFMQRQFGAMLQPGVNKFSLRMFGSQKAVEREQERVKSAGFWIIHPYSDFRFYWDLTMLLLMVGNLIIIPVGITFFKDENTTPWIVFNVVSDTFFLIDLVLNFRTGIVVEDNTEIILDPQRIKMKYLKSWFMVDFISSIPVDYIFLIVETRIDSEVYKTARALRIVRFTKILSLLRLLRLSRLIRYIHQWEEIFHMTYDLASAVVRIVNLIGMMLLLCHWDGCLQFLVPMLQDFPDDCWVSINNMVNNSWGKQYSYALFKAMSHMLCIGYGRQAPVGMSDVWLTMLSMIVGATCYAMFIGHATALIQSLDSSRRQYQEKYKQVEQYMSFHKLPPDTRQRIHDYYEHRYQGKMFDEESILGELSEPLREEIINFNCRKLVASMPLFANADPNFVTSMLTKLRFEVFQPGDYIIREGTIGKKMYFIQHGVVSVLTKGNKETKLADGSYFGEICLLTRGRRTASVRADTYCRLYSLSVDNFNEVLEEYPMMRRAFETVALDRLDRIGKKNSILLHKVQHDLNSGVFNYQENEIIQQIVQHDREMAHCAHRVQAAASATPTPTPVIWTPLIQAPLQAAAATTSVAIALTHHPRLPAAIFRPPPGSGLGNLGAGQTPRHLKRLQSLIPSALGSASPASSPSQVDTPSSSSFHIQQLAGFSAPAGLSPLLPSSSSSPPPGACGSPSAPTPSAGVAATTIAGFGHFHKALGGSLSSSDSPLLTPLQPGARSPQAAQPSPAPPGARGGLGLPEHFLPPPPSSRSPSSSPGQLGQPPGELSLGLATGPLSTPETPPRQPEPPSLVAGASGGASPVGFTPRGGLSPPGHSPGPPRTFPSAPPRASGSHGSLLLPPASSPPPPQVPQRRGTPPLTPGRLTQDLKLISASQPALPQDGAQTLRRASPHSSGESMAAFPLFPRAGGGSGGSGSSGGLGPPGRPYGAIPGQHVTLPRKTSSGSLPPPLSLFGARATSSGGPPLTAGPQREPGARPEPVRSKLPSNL

KV7.1/minK = target: T6, KV7.1/minK (Homo sapiens, UniProt P51787); experiment: automated patch clamp (SyncroPatch […]PE); assay type: cell-based
T6 construct: gene KCNQ1; stably expressed in CHO cells; IKs current

[2] = automated patch clamp (SyncroPatch […]PE); assay type: cell-based, Homo sapiens; conditions: read-out: CaV1.2 ramp
[3] = automated patch clamp (SyncroPatch […]PE); assay type: cell-based, Homo sapiens; conditions: read-out: CaV1.2 ramp; remark: listed apart in the source

T2 sequence (Q13936 whole entry): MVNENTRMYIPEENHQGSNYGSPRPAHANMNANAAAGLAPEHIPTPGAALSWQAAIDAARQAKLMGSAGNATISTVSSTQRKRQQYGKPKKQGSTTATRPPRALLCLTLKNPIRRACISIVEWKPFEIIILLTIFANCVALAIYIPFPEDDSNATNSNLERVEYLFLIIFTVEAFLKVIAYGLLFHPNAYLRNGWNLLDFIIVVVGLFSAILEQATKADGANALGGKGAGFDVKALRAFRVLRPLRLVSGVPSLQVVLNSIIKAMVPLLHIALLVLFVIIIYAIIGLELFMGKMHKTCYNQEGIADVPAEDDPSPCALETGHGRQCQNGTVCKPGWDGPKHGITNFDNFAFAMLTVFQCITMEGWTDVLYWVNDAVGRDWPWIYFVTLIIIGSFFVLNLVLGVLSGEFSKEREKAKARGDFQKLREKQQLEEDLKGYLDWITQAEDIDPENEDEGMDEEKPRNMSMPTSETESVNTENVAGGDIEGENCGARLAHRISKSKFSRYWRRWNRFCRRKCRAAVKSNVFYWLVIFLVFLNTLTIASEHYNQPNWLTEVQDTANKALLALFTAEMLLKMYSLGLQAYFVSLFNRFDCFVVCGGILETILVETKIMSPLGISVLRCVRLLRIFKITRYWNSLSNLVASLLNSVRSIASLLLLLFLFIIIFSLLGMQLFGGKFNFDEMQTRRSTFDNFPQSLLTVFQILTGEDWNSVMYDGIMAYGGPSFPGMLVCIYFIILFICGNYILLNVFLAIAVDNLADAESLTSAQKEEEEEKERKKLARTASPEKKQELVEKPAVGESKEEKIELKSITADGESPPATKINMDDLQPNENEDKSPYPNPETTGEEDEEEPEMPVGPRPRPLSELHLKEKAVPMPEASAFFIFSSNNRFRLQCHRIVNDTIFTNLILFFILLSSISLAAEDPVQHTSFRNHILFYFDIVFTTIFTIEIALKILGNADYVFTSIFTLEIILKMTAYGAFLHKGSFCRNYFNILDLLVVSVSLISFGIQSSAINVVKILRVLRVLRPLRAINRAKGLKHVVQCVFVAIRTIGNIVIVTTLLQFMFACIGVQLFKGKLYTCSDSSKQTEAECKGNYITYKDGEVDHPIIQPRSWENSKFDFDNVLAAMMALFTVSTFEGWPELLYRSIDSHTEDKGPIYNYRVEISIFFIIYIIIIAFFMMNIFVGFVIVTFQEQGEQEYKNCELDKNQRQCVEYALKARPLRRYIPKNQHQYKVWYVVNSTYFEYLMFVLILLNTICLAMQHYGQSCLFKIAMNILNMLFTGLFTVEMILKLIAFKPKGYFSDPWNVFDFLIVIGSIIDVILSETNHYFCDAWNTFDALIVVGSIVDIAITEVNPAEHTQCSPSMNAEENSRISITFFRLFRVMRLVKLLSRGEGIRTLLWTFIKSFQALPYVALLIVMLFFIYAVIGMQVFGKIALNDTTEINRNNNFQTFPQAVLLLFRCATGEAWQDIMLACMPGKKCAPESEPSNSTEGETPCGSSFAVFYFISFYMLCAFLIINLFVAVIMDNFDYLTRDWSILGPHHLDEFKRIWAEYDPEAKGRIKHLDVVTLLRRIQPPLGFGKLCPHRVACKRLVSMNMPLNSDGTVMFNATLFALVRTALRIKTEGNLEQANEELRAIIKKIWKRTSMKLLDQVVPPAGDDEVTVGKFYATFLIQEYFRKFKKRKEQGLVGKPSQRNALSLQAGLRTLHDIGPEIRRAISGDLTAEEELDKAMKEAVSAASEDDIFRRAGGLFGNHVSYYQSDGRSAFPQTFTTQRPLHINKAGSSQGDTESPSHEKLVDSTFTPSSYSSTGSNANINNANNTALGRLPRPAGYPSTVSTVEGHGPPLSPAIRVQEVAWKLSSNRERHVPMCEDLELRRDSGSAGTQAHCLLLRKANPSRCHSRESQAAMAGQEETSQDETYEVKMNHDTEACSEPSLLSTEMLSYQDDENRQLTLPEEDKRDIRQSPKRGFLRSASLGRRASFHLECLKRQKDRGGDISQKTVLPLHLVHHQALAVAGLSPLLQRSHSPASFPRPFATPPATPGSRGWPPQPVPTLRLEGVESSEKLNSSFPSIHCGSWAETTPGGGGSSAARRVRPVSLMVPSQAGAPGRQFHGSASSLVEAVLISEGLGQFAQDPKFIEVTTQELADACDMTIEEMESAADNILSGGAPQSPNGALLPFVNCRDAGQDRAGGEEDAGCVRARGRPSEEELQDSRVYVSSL
T2 sequence (Q08289 whole entry partner): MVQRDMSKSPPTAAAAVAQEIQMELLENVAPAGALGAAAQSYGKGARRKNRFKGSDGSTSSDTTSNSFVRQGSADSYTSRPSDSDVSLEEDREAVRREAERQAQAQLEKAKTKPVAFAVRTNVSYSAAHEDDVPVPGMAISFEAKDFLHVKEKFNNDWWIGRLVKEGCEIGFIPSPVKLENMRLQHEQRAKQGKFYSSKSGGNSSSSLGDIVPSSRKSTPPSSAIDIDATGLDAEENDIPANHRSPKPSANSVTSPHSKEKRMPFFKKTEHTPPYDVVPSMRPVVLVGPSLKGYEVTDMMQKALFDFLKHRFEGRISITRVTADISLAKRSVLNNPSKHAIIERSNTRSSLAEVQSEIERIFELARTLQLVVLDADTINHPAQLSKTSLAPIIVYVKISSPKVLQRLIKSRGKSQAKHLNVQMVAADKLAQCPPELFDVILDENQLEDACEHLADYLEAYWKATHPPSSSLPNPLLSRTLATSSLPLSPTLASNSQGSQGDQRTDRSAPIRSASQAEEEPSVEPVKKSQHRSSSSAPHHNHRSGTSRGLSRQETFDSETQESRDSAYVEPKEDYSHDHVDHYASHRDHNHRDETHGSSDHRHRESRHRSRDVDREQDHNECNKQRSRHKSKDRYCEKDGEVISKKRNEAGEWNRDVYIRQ
T2 sequence (P54289 25-956 partner): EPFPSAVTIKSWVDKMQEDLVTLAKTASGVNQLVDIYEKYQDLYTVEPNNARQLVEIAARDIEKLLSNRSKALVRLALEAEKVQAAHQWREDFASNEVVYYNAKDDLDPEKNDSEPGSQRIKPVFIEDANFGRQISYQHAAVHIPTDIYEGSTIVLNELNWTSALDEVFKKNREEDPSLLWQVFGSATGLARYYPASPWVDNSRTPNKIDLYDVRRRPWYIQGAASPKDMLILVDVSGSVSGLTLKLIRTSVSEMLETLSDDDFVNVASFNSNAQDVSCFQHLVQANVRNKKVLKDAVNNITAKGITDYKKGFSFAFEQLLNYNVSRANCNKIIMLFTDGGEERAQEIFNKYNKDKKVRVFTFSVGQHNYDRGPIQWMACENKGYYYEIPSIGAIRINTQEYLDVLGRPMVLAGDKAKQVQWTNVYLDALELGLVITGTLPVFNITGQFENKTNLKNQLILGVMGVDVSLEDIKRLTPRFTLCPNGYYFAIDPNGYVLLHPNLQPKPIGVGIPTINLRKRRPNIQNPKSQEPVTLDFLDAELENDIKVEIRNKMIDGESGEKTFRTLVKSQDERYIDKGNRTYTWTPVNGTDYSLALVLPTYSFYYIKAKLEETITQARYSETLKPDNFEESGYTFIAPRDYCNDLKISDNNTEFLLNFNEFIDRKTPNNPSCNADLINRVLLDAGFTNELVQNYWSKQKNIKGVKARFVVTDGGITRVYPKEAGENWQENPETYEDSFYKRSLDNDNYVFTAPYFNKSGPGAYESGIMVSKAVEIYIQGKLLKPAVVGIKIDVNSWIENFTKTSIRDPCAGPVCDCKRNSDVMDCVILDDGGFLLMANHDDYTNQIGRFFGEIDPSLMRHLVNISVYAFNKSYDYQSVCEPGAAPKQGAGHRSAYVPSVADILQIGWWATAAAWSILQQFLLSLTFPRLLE
T2 sequence (P54289 957-1103 partner): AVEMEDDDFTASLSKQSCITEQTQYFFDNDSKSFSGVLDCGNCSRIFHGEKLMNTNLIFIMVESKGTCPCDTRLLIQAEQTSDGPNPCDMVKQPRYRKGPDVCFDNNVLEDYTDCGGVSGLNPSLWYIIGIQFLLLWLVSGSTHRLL
T6 sequence (P51787 whole entry): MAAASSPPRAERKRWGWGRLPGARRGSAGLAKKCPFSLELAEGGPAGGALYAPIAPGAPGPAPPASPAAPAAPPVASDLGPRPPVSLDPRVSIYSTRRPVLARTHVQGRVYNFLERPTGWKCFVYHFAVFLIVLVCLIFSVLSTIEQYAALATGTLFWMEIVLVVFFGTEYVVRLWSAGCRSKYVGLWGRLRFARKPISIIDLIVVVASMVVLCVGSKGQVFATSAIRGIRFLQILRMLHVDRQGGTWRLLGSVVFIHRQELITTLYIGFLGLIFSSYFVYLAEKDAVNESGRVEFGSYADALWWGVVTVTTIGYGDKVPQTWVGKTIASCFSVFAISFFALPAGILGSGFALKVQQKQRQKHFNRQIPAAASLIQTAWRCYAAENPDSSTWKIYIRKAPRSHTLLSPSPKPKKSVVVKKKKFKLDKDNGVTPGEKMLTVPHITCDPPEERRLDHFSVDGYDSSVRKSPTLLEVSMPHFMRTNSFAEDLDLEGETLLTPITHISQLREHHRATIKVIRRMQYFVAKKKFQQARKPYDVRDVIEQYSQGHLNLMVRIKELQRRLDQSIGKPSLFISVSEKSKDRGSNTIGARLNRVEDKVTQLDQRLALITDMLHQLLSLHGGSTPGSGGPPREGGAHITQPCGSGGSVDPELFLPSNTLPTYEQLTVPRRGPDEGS

CC[C@H]1OC(=O)[C@H](C)[C@@H](O[C@H]2C[C@@](C)(OC)[C@@H](O)[C@H](C)O2)[C@H](C)[C@@H](O[C@@H]2O[C@H](C)C[C@H](N(C)C)[C@H]2O)[C@](C)(O)C[C@@H](C)CN(C)[C@H](C)[C@@H](O)[C@]1(C)O [azithromycin]
IC50 (Kir2.1; read-out: NaV1.5 late): > 1000 µM | IC50 [1]: 771 µM | IC50 (NaV1.5): 612 µM | IC50 (hERG): 439 µM | IC50 (HCN4; read-out: NaV1.5 late): > 1000 µM | IC50 (KV7.1/minK; read-out: NaV1.5 late): > 1000 µM

CCN(CC)CCCC(C)Nc1ccnc2cc(Cl)ccc12 (stereo not shown) [chloroquine]
IC50 (Kir2.1; read-out: Kir2.1): 4.98 µM | IC50 [1]: 17.9 µM | IC50 (NaV1.5): 13.9 µM | IC50 (HCN4; read-out: HCN4): 96.2 µM | IC50 [2]: > 300 µM

CC[C@H]1OC(=O)[C@H](C)[C@@H](O[C@H]2C[C@@](C)(OC)[C@@H](O)[C@H](C)O2)[C@H](C)[C@@H](O[C@@H]2O[C@H](C)C[C@H](N(C)C)[C@H]2O)[C@](C)(O)C[C@@H](C)C(=O)[C@H](C)[C@@H](O)[C@]1(C)O [erythromycin]
IC50 (HCN4; read-out: NaV1.5 peak): > 1000 µM | IC50 (KV7.1/minK; read-out: NaV1.5 peak): > 1000 µM

CCN(CCO)CCCC(C)Nc1ccnc2cc(Cl)ccc12 (stereo not shown) [hydroxychloroquine]
IC50 (Kir2.1; read-out: NaV1.5 peak): 44.2 µM | IC50 [1]: 23.9 µM | IC50 (NaV1.5): 17 µM | IC50 (hERG): 2.66 µM | IC50 [3]: > 300 µM | IC50 [2]: > 300 µM
